Key:
UGT1A9 = biological target: T1, UGT1A9 (Homo sapiens, UniProt O60656); assay: Reaction phenotyping with recombinant human UGT enzymes: UGT1A9; type: in vitro ADME; conditions: rUGT1A9 0.25 mg protein/mL, 10 μmol/L, 60 minutes, n = 2
T1 construct: purchased BD Biosciences; host or cells: baculovirus-infected insect cells
T1 sequence (O60656 26-530): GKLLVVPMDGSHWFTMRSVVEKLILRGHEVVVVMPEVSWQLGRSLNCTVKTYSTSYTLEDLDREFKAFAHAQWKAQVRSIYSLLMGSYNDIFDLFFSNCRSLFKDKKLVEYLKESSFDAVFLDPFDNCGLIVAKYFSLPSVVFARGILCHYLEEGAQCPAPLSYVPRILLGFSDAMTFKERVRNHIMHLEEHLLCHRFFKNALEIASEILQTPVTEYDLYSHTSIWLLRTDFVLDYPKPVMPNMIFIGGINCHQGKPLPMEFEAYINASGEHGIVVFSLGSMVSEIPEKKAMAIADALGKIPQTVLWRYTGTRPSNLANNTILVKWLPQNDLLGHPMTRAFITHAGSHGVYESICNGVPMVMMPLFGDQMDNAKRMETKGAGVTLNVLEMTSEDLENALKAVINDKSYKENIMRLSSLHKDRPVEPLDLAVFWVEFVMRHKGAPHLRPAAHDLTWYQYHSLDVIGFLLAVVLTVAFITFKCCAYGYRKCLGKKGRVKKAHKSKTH
Experimental: (§1) Ataluren at 10 μmol/L, was incubated (n = 2) with recombinant human uridine diphosphate glucuronosyltransferase (rUGT) enzymes: rUGTs 1A1, 1A3, 1A4, 1A6, 1A7, 1A8, 1A9, 1A10, 2B4, 2B7, 2B15, and 2B17 at 0.25 mg protein/mL. Incubations were conducted in duplicate at 37°C. The incubation mixture (0.2 mL, final volume with 1% methanol) consisted of Tris‐HCl buffer (100 mmol/L, pH 7.7 at 37°C), MgCl2 (10 mmol/L), EDTA (1 mmol/L), saccharic acid 1,4‐lactone (0.1 mmol/L), and UDPGA (8 mmol/L). […] Samples were subjected to centrifugation (920 g for 10 minutes at 10°C) and the supernatant fractions were analyzed by LC‐MS/MS to quantify the formation of ataluren‐O‐1β‐acyl glucuronide and loss of ataluren. […] The ataluren acyl glucuronide formation rate after 60 minutes incubation was calculated using the amount of metabolite formed (pmol) divided by the protein amount in the incubation sample (0.05 mg) and the incubation time (60 minutes).
(§2) Quantification of ataluren loss and ataluren‐O‐1β‐acyl glucuronide formation was carried out with an LC‐MS/MS system, which consisted of two Shimadzu LC‐10ADvp pumps, a SPD10‐AVP UV/Vis detector, a Shimadzu SILHTA autosampler, a Shimadzu DGU‐14A degasser, and a Sciex API 4000 QTRAP mass spectrometer equipped with a Turbo Ionspray ionization source that operated in positive ionization mode. […]

UGT1A7 = biological target: T2, UGT1A7 (Homo sapiens, UniProt Q9HAW7); assay: Reaction phenotyping with recombinant human UGT enzymes: UGT1A7; type: in vitro ADME; conditions: rUGT1A7 0.25 mg protein/mL, 10 μmol/L, 60 minutes, n = 2
T2 construct: purchased BD Biosciences; host or cells: baculovirus-infected insect cells
T2 sequence (Q9HAW7 26-530): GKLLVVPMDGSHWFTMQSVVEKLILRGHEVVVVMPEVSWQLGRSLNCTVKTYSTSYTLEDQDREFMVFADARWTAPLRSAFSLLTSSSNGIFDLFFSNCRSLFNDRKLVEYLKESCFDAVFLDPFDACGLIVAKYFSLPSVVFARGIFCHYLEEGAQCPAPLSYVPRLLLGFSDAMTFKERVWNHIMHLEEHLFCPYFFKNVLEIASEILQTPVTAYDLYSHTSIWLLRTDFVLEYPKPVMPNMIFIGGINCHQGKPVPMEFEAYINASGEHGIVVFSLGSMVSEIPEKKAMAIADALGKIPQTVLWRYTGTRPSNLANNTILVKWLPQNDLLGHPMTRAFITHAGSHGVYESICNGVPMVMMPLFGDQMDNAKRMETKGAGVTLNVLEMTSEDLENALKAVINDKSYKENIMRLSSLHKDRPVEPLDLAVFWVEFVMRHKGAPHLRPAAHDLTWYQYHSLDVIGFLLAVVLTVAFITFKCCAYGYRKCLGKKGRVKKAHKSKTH
Experimental: as §1, §2

[1] = Glucuronidation in pooled human kidney microsomes; type: in vitro ADME; conditions: kidney microsomes 1 mg protein/mL, 10 μmol/L, 60 minutes, n = 1
Experimental: Ataluren at 10 μmol/L, was incubated (n = 1) with pooled human intestinal, lung, and kidney microsomes (1 mg protein/mL, preactivated with alamethicin) to evaluate if ataluren‐O‐1β‐acyl glucuronide will be formed in these extrahepatic tissues. Incubation mixtures and procedures were essentially the same as the above. The supernatant fractions were analyzed by LC‐MS/MS to quantify the formation of ataluren‐O‐1β‐acyl glucuronide and the loss of ataluren. Detailed LC‐MS/MS conditions are summarized in LC‐MS/MS Analysis section. […] The ataluren acyl glucuronide formation rate after 60 minutes incubation was calculated using the amount of metabolite formed (pmol) divided by the protein amount in the incubation sample ([…]) and the incubation time (60 minutes).
Quantification of ataluren loss and ataluren‐O‐1β‐acyl glucuronide formation was carried out with an LC‐MS/MS system, which consisted of two Shimadzu LC‐10ADvp pumps, a SPD10‐AVP UV/Vis detector, a Shimadzu SILHTA autosampler, a Shimadzu DGU‐14A degasser, and a Sciex API 4000 QTRAP mass spectrometer equipped with a Turbo Ionspray ionization source that operated in positive ionization mode. […] Ion transitions monitored were at m/z 285 → m/z 123 for ataluren, m/z 461 → m/z 285 for ataluren acyl glucuronide, and m/z 289 → m/z 127 for ataluren‐D4 (internal standard), respectively.

CYP1A2 = assay: CYP induction in primary human hepatocytes: CYP1A2; conditions: Phenacetin O-deethylase, 48 hours, n=3

O=C(O)c1cccc(-c2noc(-c3ccccc3F)n2)c1 [ataluren, Ataluren]
ataluren loss (UGT1A9): 32.7%
ataluren loss (UGT1A7): 6.2%
ataluren loss [1]: 94.3%
Positive control %, Mean (CYP1A2; ataluren 4 µM): 1.32%
Positive control %, Mean (CYP1A2; ataluren 40 µM): 1.24%
Vehicle control %, Mean (CYP1A2; ataluren 40 µM): 116%
Positive control %, Mean (CYP1A2; ataluren 400 µM): 0.087%
Vehicle control %, Mean (CYP1A2; ataluren 400 µM): 100%
